Several values for one entry are separate records, joined by “and”; a condition that tells them apart may be missing. Equal entries are not always repeated.
Key:
[1] = biological target: PRKCQ (Homo sapiens, UniProt Q04759); assay: biochemical; design: endogenous in cells; host or cells: K562 cell extract; species or system K562 (extract); replicate k of n = 2 (each experiment ID is one independent experiment; two experiment IDs per compound); details: read-out: KDapp
[2] = biological target: TYK2 (Homo sapiens, UniProt P29597); assay: biochemical; design: endogenous in cells; host or cells: K562 cell extract; species or system K562 (extract); replicate k of n = 2 (each experiment ID is one independent experiment; two experiment IDs per compound); details: read-out: KDapp
[3] = biological target: T1, ITK (Homo sapiens, UniProt Q08881); assay: biochemical; design: endogenous in cells; host or cells: K562 cell extract; species or system K562 (extract); replicate k of n = 2 (each experiment ID is one independent experiment; two experiment IDs per compound); details: read-out: KDapp
T1 sequence (Q08881 1-620): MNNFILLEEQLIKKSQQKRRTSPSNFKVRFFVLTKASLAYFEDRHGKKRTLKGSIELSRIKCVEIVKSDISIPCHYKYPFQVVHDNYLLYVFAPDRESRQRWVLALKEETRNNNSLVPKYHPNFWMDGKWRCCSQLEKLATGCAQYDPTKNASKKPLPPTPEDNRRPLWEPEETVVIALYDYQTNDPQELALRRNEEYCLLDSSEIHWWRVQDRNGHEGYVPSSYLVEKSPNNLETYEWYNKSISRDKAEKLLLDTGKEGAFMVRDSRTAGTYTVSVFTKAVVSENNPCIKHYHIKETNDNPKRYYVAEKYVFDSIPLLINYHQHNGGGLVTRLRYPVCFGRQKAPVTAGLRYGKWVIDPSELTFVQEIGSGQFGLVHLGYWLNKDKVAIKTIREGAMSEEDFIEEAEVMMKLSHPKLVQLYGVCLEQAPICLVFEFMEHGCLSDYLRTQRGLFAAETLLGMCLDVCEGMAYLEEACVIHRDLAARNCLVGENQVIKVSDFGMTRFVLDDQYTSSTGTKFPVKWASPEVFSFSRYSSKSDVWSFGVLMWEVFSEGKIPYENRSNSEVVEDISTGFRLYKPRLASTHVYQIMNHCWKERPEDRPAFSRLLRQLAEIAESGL

[4] = biological target: AURKB (Homo sapiens, UniProt Q96GD4); assay: biochemical; design: endogenous in cells; host or cells: K562 cell extract; species or system K562 (extract); replicate k of n = 2 (each experiment ID is one independent experiment; two experiment IDs per compound); details: read-out: KDapp
[5] = biological target: MAPK7 (Homo sapiens, UniProt Q13164); assay: biochemical; design: endogenous in cells; host or cells: K562 cell extract; species or system K562 (extract); replicate k of n = 2 (each experiment ID is one independent experiment; two experiment IDs per compound); details: read-out: KDapp
[6] = biological target: PCTK2 (Homo sapiens, UniProt Q00537); assay: biochemical; design: endogenous in cells; host or cells: K562 cell extract; species or system K562 (extract); replicate k of n = 2 (each experiment ID is one independent experiment; two experiment IDs per compound); details: read-out: KDapp
[7] = biological target: PTK2B (Homo sapiens, UniProt Q14289); assay: biochemical; design: endogenous in cells; host or cells: K562 cell extract; species or system K562 (extract); replicate k of n = 2 (each experiment ID is one independent experiment; two experiment IDs per compound); details: read-out: KDapp
[8] = biological target: KIAA0999 (Homo sapiens, UniProt Q9Y2K2); assay: biochemical; design: endogenous in cells; host or cells: K562 cell extract; species or system K562 (extract); replicate k of n = 2 (each experiment ID is one independent experiment; two experiment IDs per compound); details: read-out: KDapp
[9] = biological target: WEE1 (Homo sapiens, UniProt P30291); assay: biochemical; design: endogenous in cells; host or cells: K562 cell extract; species or system K562 (extract); replicate k of n = 2 (each experiment ID is one independent experiment; two experiment IDs per compound); details: read-out: KDapp
[10] = biological target: YES1 (Homo sapiens, UniProt P07947); assay: biochemical; design: endogenous in cells; host or cells: K562 cell extract; species or system K562 (extract); replicate k of n = 2 (each experiment ID is one independent experiment; two experiment IDs per compound); details: read-out: KDapp
[11] = biological target: T2, Plasmodium falciparum calcium-dependent protein kinase 1 (CDPK1) (Plasmodium falciparum, UniProt P62344); assay: CDPK1 Kinase-Glo ATP-consumption screen and dose-response; format: biochemical; details: hits below 1 uM; read-out: CDPK1 IC50
T2 construct: 6-Histidine (N); made in house
Procedure, shortened: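 Single-point testing used 1 μM final compound, then dose-response, against CDPK4 and CDPK1 with Syntide-2 (40 μM) as substrate. After 90 min, reactions were halted by 5 mM EGTA, and kinase activity was inferred from depleted ATP via Kinase-Glo luminescence.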

[12] = biological target: MAP4K4 (Homo sapiens, UniProt O95819); assay: biochemical; design: endogenous in cells; host or cells: K562 cell extract; species or system K562 (extract); replicate k of n = 2 (each experiment ID is one independent experiment; two experiment IDs per compound); details: read-out: KDapp
MAP4K4, sequence (O95819 whole entry): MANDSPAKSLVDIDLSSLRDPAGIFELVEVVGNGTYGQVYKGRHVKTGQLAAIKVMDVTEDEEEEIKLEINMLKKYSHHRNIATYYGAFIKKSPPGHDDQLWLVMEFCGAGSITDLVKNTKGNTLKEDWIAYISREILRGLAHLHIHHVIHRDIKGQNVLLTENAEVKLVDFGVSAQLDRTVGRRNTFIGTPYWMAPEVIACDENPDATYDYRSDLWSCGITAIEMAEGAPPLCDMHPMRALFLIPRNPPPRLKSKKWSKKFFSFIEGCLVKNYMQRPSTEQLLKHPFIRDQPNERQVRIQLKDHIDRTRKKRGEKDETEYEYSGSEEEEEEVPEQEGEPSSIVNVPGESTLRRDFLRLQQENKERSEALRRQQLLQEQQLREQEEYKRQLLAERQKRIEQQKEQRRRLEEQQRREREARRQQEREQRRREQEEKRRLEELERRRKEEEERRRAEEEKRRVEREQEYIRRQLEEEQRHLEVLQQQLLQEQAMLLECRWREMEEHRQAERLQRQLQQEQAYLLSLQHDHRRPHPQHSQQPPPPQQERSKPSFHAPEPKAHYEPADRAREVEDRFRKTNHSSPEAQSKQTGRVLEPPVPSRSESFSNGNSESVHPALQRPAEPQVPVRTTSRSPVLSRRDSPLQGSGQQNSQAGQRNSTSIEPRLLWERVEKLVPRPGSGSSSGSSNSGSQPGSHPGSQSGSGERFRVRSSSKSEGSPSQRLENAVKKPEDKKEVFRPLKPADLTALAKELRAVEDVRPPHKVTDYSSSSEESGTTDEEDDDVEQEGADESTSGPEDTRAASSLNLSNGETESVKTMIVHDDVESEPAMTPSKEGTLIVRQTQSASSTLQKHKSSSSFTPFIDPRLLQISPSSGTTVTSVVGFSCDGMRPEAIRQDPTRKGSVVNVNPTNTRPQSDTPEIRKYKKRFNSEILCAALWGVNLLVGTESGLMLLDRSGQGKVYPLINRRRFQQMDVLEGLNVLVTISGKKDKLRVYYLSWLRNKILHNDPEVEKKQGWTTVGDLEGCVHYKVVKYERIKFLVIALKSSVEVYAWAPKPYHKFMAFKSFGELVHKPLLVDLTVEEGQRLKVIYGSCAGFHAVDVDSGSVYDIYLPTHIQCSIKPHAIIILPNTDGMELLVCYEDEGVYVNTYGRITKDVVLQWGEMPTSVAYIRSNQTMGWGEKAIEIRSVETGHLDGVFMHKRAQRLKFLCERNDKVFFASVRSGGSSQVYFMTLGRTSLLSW

TYK2, sequence (P29597 whole entry): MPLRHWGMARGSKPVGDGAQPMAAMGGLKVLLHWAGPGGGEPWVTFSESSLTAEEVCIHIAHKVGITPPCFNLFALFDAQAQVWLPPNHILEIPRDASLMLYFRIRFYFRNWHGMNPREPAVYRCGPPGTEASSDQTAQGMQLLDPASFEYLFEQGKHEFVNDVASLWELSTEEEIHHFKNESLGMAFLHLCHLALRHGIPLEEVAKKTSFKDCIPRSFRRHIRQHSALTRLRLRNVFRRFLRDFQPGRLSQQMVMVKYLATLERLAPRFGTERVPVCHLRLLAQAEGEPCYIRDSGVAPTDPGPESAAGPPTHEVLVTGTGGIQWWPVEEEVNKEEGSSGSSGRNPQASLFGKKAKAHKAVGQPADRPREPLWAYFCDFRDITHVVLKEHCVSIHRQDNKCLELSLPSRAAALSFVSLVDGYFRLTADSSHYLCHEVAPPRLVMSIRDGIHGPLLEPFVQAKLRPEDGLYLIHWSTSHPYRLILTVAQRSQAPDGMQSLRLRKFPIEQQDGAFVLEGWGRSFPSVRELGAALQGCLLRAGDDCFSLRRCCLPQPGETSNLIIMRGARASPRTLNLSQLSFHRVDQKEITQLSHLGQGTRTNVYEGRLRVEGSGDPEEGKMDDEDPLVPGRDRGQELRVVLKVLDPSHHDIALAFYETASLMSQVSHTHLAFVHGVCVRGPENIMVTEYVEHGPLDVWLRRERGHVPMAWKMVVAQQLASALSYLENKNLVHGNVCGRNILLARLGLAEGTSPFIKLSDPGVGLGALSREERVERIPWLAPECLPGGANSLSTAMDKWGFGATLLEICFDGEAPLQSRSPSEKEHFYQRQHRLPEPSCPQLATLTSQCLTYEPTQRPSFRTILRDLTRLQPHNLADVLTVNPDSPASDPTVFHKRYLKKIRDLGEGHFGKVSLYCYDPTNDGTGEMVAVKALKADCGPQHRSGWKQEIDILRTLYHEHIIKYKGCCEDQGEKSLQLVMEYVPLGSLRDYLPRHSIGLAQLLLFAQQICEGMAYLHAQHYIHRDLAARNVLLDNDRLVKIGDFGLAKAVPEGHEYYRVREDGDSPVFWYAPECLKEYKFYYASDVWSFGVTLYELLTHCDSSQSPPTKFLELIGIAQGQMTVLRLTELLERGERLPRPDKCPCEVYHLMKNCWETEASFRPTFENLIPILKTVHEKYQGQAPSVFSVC
MAPK7, sequence (Q13164 whole entry): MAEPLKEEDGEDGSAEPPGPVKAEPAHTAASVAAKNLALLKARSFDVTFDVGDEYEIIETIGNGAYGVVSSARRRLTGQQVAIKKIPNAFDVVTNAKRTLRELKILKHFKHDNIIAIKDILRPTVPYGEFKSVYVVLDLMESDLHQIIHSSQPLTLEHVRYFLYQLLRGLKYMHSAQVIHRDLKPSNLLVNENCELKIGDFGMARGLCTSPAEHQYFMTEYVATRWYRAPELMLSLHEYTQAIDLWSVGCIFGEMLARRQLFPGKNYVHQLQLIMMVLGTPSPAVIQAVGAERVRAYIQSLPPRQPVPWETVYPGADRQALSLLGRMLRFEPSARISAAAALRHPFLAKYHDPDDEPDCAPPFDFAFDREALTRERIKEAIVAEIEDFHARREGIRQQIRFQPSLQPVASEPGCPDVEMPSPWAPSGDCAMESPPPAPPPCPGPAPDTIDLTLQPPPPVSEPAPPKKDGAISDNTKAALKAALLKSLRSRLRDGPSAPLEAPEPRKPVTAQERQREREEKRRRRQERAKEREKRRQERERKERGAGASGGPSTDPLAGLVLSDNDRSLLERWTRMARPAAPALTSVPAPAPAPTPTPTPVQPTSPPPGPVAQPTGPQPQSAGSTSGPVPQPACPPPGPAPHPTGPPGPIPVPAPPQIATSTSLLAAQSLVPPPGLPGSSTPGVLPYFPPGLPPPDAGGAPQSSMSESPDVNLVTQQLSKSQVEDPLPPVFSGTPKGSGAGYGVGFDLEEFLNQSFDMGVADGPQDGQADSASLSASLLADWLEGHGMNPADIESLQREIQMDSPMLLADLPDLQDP
PCTK2, sequence (Q00537 whole entry): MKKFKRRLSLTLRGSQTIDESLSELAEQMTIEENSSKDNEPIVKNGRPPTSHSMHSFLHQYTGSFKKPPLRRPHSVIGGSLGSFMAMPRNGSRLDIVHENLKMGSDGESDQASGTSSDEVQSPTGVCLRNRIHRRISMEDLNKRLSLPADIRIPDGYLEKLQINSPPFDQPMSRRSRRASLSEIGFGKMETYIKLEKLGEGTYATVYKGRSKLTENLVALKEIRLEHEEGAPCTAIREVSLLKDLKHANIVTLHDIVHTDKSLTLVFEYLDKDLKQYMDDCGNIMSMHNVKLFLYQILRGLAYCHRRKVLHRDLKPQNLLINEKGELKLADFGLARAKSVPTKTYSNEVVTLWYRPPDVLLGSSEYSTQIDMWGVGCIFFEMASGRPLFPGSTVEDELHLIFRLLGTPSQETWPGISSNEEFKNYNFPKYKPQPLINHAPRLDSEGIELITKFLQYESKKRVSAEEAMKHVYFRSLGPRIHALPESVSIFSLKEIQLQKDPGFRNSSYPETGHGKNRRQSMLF
PRKCQ, sequence (Q04759 whole entry): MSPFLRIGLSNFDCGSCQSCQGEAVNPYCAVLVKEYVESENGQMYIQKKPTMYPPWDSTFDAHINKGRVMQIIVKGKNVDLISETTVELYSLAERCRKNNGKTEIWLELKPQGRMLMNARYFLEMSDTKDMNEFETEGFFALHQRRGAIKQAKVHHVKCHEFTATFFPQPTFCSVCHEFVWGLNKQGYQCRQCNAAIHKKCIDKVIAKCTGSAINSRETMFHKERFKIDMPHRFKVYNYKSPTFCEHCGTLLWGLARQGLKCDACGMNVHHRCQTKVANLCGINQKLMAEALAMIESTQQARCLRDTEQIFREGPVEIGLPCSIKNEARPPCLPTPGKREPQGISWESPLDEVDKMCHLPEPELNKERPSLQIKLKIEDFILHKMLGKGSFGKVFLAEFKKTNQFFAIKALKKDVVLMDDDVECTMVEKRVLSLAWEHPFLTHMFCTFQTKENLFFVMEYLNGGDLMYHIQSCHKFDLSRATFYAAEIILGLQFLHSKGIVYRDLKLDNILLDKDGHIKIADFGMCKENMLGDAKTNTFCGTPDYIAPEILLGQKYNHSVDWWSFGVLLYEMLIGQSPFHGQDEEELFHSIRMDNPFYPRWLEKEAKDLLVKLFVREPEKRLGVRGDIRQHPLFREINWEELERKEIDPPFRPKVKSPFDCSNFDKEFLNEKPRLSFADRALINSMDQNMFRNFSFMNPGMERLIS
YES1, sequence (P07947 whole entry): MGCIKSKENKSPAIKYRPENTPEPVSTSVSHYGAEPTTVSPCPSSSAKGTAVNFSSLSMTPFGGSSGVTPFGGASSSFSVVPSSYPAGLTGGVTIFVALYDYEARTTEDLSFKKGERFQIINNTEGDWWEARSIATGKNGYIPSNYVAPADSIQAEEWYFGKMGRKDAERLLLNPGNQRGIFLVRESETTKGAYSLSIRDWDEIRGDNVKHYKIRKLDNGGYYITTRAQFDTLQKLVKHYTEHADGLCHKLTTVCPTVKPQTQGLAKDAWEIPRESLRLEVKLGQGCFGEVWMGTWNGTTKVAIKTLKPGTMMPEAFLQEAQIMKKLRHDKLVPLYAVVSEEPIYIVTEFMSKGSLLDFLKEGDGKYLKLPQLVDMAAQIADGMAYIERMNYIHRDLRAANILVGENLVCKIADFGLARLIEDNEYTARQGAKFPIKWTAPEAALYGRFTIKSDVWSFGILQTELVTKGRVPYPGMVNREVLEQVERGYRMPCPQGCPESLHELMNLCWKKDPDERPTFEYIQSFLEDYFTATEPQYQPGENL

Structure (SMILES) | Kd [1] | Kd [2] | Kd [3] | Kd [4] | Kd [5] | Kd [6] | Kd [7] | Kd [8] | Kd [9] | Kd [10] | IC50 [11] | Kd [12]
CN1CCN(c2ccc(Nc3ncc(C#N)c(Nc4ccccc4C(N)=O)n3)cc2)CC1.Cl [TCMDC-134116] | 858 nM and 650 nM | 35.6 nM and 32.8 nM | 38.7 nM | 14.3 nM and 22.8 nM | 140 nM and 190 nM | 57.7 nM and 83.5 nM | 28.1 nM and 35.3 nM | 214 nM and 153 nM | 17.3 nM and 16.9 nM | 40.6 nM and 50.7 nM | 12 nM | 
Cl.NCC1(c2nc(-c3ccc(Cl)c(O)c3)c(-c3ccncc3)[nH]2)CCCCC1 [TCMDC-141154] | 786 nM and 1000 nM |  |  |  | 549 nM and 949 nM |  |  | 40.3 nM and 31.2 nM |  | 1490 nM and 2600 nM | 14 nM | 850 nM and 539 nM
CN(C)CC(O)COc1ccc(Nc2ncc([N+](=O)[O-])c(Nc3ccccc3O)n2)cc1.O=C(O)C(F)(F)F (stereo not drawn) [TCMDC-141399] |  | 677 nM | 470 nM | 1500 nM |  | 1140 nM and 1060 nM | 128 nM and 175 nM |  | 209 nM |  |  | 1020 nM and 680 nM
